Assay results as given in publication PMC11589570, “Critical assessment of LC3/GABARAP ligands used for degrader development and ligandability of LC3/GABARAP binding pockets” (Nature Communications, 2024).
Where “and” joins values, the source holds several entries; their conditions need not be identical. Equal values may be shown once. Read-outs that look alike come from different tables or passages of the source.

Columns and labels:
U2OS cells = assay: Cell growth assay (IncuCyte confluence over 72 h); assay type: cell-based; parameters: key to U2OS cell growth: % of well area covered by cells (confluence); conditions: listed as AN1
Method in brief: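 U2OS cells were grown in DMEM with 10% FBS for 24 h before treatment. Confluence was then tracked by IncuCyte phase imaging over 72 h and expressed as % of well area covered by cells. Each point is the average of three wells.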

GABARAPL2 = GABARAPL2 (Homo sapiens, UniProt P60520); conditions: GABARAPL2:ligand molar ratio 1:2
Chain of GABARAPL2 (P60520 whole entry): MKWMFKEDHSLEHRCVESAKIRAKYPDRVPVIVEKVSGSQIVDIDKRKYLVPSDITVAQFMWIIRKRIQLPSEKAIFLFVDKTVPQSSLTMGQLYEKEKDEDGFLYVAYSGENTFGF

CSP (GABARAPL2; residue A19): 0.023 ppm | CSP (GABARAPL2; residue A23): 0.017 ppm | CSP (GABARAPL2; residue A58): 0.006 ppm | CSP (GABARAPL2; residue A75): 0.00152 ppm | CSP (GABARAPL2; residue A108): 0.001 ppm | CSP (GABARAPL2; residue C15): 0.010 ppm | CSP (GABARAPL2; residue D8): 0.011 ppm | CSP (GABARAPL2; residue D43): 0.002 ppm | CSP (GABARAPL2; residue D54): 0.011 ppm | CSP (GABARAPL2; residue D81): 0.00158 ppm | CSP (GABARAPL2; residue D100): 0.002 ppm | CSP (GABARAPL2; residue D102): 0.015 ppm | CSP (GABARAPL2; residue E7): 0.00272 ppm | CSP (GABARAPL2; residue E12): 0.006 ppm | CSP (GABARAPL2; residue E17): 0.011 ppm | CSP (GABARAPL2; residue E34): 0.012 ppm | CSP (GABARAPL2; residue E96): 0.00425 ppm | CSP (GABARAPL2; residue E98): 0.005 ppm | CSP (GABARAPL2; residue E101): 0.005 ppm | CSP (GABARAPL2; residue F5, estimated): 0.010 ppm | CSP (GABARAPL2; residue F60): 0.006 ppm | CSP (GABARAPL2; residue F77): 0.00374 ppm | CSP (GABARAPL2; residue F104): 0.019 ppm | CSP (GABARAPL2; residue F115): 0.011 ppm | CSP (GABARAPL2; residue G38): 0.024 ppm | CSP (GABARAPL2; residue G103): 0.009 ppm | CSP (GABARAPL2; residue G111): 0.00641 ppm | CSP (GABARAPL2; residue H9): 0.012 ppm | CSP (GABARAPL2; residue H13): 0.004 ppm | CSP (GABARAPL2; residue I21): 0.013 ppm | CSP (GABARAPL2; residue I32): 0.024 ppm | CSP (GABARAPL2; residue I41): 0.011 ppm | CSP (GABARAPL2; residue I44): 0.005 ppm | CSP (GABARAPL2; residue I55): 0.003 ppm | CSP (GABARAPL2; residue I63): 0.00457 ppm | CSP (GABARAPL2; residue I64): 0.007 ppm | CSP (GABARAPL2; residue I76): 0.00122 ppm | CSP (GABARAPL2; residue K2): 0.007 ppm | CSP (GABARAPL2; residue K6): 0.010 ppm | CSP (GABARAPL2; residue K20): 0.015 ppm | CSP (GABARAPL2; residue K24): 0.012 ppm | CSP (GABARAPL2; residue K35): 0.010 ppm | CSP (GABARAPL2; residue K46, estimated): 0.005 ppm | CSP (GABARAPL2; residue K48): 0.050 ppm | CSP (GABARAPL2; residue K66): 0.004 ppm | CSP (GABARAPL2; residue K82, estimated): 0.002 ppm | CSP (GABARAPL2; residue K97): 0.005 ppm | CSP (GABARAPL2; residue K99): 0.004 ppm | CSP (GABARAPL2; residue L11): 0.00364 ppm | CSP (GABARAPL2; residue L50): 0.025 ppm | CSP (GABARAPL2; residue L94): 0.011 ppm | CSP (GABARAPL2; residue L105): 0.027 ppm | CSP (GABARAPL2; residue M1): 0.00659 ppm | CSP (GABARAPL2; residue M4, estimated): 0.003 ppm | CSP (GABARAPL2; residue M61): 0.00531 ppm | CSP (GABARAPL2; residue M91): 0.003 ppm | CSP (GABARAPL2; residue P26, estimated): 0.020 ppm | CSP (GABARAPL2; residue P30, estimated): 0.040 ppm | CSP (GABARAPL2; residue P52, estimated): 0.020 ppm | CSP (GABARAPL2; residue P71, estimated): 0.002 ppm | CSP (GABARAPL2; residue P85, estimated): 0.002 ppm | CSP (GABARAPL2; residue Q40): 0.000721 ppm | CSP (GABARAPL2; residue Q59): 0.00467 ppm | CSP (GABARAPL2; residue Q86): 0.003 ppm | CSP (GABARAPL2; residue R14): 0.018 ppm | CSP (GABARAPL2; residue R22): 0.020 ppm | CSP (GABARAPL2; residue R28): 0.016 ppm | CSP (GABARAPL2; residue R47, estimated): 0.020 ppm | CSP (GABARAPL2; residue R65): 0.00158 ppm | CSP (GABARAPL2; residue R67): 0.006 ppm | CSP (GABARAPL2; residue S10): 0.010 ppm | CSP (GABARAPL2; residue S18): 0.00255 ppm | CSP (GABARAPL2; residue S37): 0.048 ppm | CSP (GABARAPL2; residue S39): 0.003 ppm | CSP (GABARAPL2; residue S53): 0.014 ppm | CSP (GABARAPL2; residue S72): 0.00173 ppm | CSP (GABARAPL2; residue S87): 0.000721 ppm | CSP (GABARAPL2; residue S88): 0.00152 ppm | CSP (GABARAPL2; residue S110): 0.00127 ppm | CSP (GABARAPL2; residue T56): 0.00374 ppm | CSP (GABARAPL2; residue T90): 0.0011 ppm | CSP (GABARAPL2; residue V16): 0.014 ppm | CSP (GABARAPL2; residue V29): 0.043 ppm | CSP (GABARAPL2; residue V31): 0.038 ppm | CSP (GABARAPL2; residue V33): 0.013 ppm | CSP (GABARAPL2; residue V42): 0.00279 ppm | CSP (GABARAPL2; residue V51): 0.046 ppm | CSP (GABARAPL2; residue V57): 0.004 ppm | CSP (GABARAPL2; residue V80): 0.008 ppm | CSP (GABARAPL2; residue V84): 0.00263 ppm | CSP (GABARAPL2; residue V107): 0.006 ppm | CSP (GABARAPL2; residue W62): 0.015 ppm | CSP (GABARAPL2; residue Y25): 0.034 ppm | CSP (GABARAPL2; residue Y49): 0.064 ppm | CSP (GABARAPL2; residue Y106): 0.023 ppm | CSP (GABARAPL2; residue Y109): 0.009 ppm
SMILES: O=C1Nc2ccc(Br)cc2C1=Cc1cc(O)c(O)c(Br)c1 [compound 1]
U2OS cell growth (U2OS cells; 100 nM, time 12 h): 35.4537 and 32.3571 and 35.5968 | U2OS cell growth (U2OS cells; 100 nM, time 14 h): 36.0873 and 39.0366 and 39.8543 | U2OS cell growth (U2OS cells; 100 nM, time 16 h): 40.1608 and 39.3939 and 40.4478 | U2OS cell growth (U2OS cells; 100 nM, time 18 h): 39.1099 and 37.1872 and 41.4362 | U2OS cell growth (U2OS cells; 100 nM, time 20 h): 43.7035 and 39.6959 and 46.4166 | U2OS cell growth (U2OS cells; 500 nM, time 10 h): 38.9338 and 41.9757 and 41.002 | U2OS cell growth (U2OS cells; 500 nM, time 12 h): 39.0148 and 42.3639 and 41.6671 | U2OS cell growth (U2OS cells; 500 nM, time 14 h): 46.8116 and 46.7871 and 49.5823 | U2OS cell growth (U2OS cells; 500 nM, time 16 h): 47.3468 and 53.1118 and 48.7734 | U2OS cell growth (U2OS cells; 500 nM, time 18 h): 38.8125 and 47.7715 and 46.4243 | U2OS cell growth (U2OS cells; 1 uM, time 10 h): 48.4994 and 57.2399 and 59.5515 | U2OS cell growth (U2OS cells; 1 uM, time 12 h): 47.4737 and 55.8868 and 54.1029 | U2OS cell growth (U2OS cells; 1 uM, time 14 h): 46.9999 and 57.1898 and 59.5195 | U2OS cell growth (U2OS cells; 1 uM, time 16 h): 54.858 and 68.5371 and 64.7822 | U2OS cell growth (U2OS cells; 1 uM, time 18 h): 48.8637 and 59.8627 and 56.3987 | U2OS cell growth (U2OS cells; 1 uM, time 20 h): 55.1556 | U2OS cell growth (U2OS cells; 3 uM, time 10 h): 50.7422 and 64.1291 and 54.5819 | U2OS cell growth (U2OS cells; 3 uM, time 12 h): 47.9181 and 60.7394 and 55.125 | U2OS cell growth (U2OS cells; 3 uM, time 14 h): 49.0342 and 60.5893 and 56.0885 | U2OS cell growth (U2OS cells; 3 uM, time 16 h): 57.6695 and 67.0321 and 61.6341 | U2OS cell growth (U2OS cells; 3 uM, time 18 h): 48.0442 and 62.2285 and 59.0264 | U2OS cell growth (U2OS cells; 3 uM, time 20 h): 51.1291 and 66.3122 and 66.4452 | U2OS cell growth (U2OS cells; 5 uM, time 10 h): 55.0487 and 54.3842 and 51.4536 | U2OS cell growth (U2OS cells; 5 uM, time 12 h): 54.96 and 58.942 and 53.816 | U2OS cell growth (U2OS cells; 5 uM, time 14 h): 49.0714 and 54.2863 and 67.0438 | U2OS cell growth (U2OS cells; 5 uM, time 16 h): 60.7907 and 61.6888 and 65.4648 | U2OS cell growth (U2OS cells; 5 uM, time 18 h): 57.5124 and 66.5017 and 59.7417 | U2OS cell growth (U2OS cells; 5 uM, time 20 h): 63.2102 and 60.2689 and 68.651 | U2OS cell growth (U2OS cells; 10 uM, time 10 h): 59.7697 and 44.8684 and 48.7466 | U2OS cell growth (U2OS cells; 10 uM, time 12 h): 61.5092 and 47.1657 and 52.5139 | U2OS cell growth (U2OS cells; 10 uM, time 14 h): 62.1617 and 46.5884 and 50.2783 | U2OS cell growth (U2OS cells; 10 uM, time 16 h): 65.2687 and 51.6571 and 54.5952 | U2OS cell growth (U2OS cells; 10 uM, time 18 h): 66.9364 and 52.1914 and 55.4238 | U2OS cell growth (U2OS cells; 10 uM, time 20 h): 65.8459 and 51.6884 and 56.9826
